From article PMC8151276, “An Integrated Approach toward NanoBRET Tracers for Analysis of GPCR Ligand Engagement” (Molecules, 2021) come the findings set out here.

Values joined by “and” are separate entries in the source; they are usually repeats but may differ in a detail not shown here. Equal entries are not always repeated. Where two headings read alike, the source gives them in different places.

What all share (type): binding
The target of one assay is T1, AVPR1A (Homo sapiens, UniProt P37288).
T1 construct: purchased Promega (in-house HiBiT-GPCR construct library, NanoBRET)
Kind of assay: NanoBRET screen HiBiT-AVPR1A in HEK293. The protocol:
Each tracer candidate was screened across the entire library of HiBiT-GPCR constructs using NanoBRET as the detection modality. As depicted in Figure 4A, the specificity of interactions was evaluated through decrease in BRET due to competitive displacement of a bound tracer by excess parental compound. Each tracer was analyzed for binding to each HiBiT-GPCR fusion in the absence and in the presence of competing parental compound. Briefly, HEK293 cells were transfected with HiBiT-GPCR constructs diluted into promoterless DNA to reduce expression and maximize translocation to the cell surface. Each tracer candidate was then screened at concentrations of 1 μM and 0.1 μM across cells expressing these fusions. Cells were treated for 1.5 h with tracer either alone or in the presence of 20 μM competing parental compound (i.e., control). BRET was measured upon addition of purified LgBiT and subsequent complementation with HiBiT genetically fused to a GPCR. The specificity of interactions was assessed through a decrease in BRET signal due to competitive displacement of the bound tracer. To further gauge the robustness of these interactions, the fold response over the control (i.e., BRETtracer/BRETcontrol) was calculated. We chose a 1.5-fold response, which translates to ≥7-fold signal over noise as the minimal threshold required to score an interaction as positive.
HiBiT-GPCR DNA constructs were diluted in 10 mM Tris pH 8 to a final concentration of 0.01 μg/μL, arrayed in 96-well plates and stored at −20 °C. For transfection, HEK293 cells were suspended in Opti-MEM (without phenol red) supplemented with 2% fetal bovine serum (Seradigm) and 100 units/mL penicillin–streptomycin (Gibco) at a final concentration of 220,000 cells/mL and dispensed into white 96-well plates at 90 μL/well. Subsequent transfections and screens were carried using an Agilent Bravo Automated Liquid Handling Platform. First, the 96-well HiBiT DNA arrays were diluted 25-fold in Opti-MEM (without serum or phenol red) to a final concentration of 0.0004 μg/μL and 20 μL of the diluted DNAs were transferred into new 96-well plates. Next, promoterless carrier DNA (1 μg/μL) was diluted 25-fold (0.04 μg/μL) and then dispensed into the diluted arrays at 20 μL/well. Following brief mixing, Viafect transfection reagent (Promega) diluted 16-fold into Opti-MEM was dispensed into the plates at 40 μL/well. After mixing by pipetting, plates were incubated for 10 min on the pipetting station deck. The DNA-transfection reagent complexes were then added to plates containing cells. To facilitate the screen, 10 μL of DNA-transfection reagent complexes were added in duplicates to the top 4 and bottom 4 rows, resulting in two identical 48-well arrays per plate. Plates with transfected cells were incubated for 18–20 h at 37 °C/5% CO2. A screen of each tracer across the entire library using two different concentrations requires duplicate plates of transfected cells. Depending on the number of tracers being screened, transfections can be scaled up using the same ratios. The next day, for each tracer, four 20× screening solutions in tracer dilution buffer (Promega) were prepared: two duplicates at final concentration of 20 μM and two duplicates at a final concentration of 2 μM. […] The four resulting solutions were diluted 4-fold in Opti-MEM without serum or phenol red to generate 5× solutions (5 µM and 0.5 µM tracer +/− 100 μM competing compound). To screen the library, a BioTek MultiFlo FX liquid dispenser was used to dispense 22.5 µL of tracer solution to the top 4 rows and 22.5 µL tracer + competing compound solution to the 4 bottom rows. Plates were briefly mixed on an orbital shaker and incubated for 1.5 h at room temperature. […] Plates were briefly mixed on an orbital shaker and incubated for 15 min to allow complementation.

For the next assay, the target named is T2, HTR2A (Homo sapiens, UniProt P28223).
T2 construct: purchased Promega (in-house HiBiT-GPCR construct library, NanoBRET)
Kind of assay: NanoBRET screen HiBiT-HTR2A in HEK293.

Another assay concerns the target T3, ADRA2B (Homo sapiens, UniProt P18089).
T3 construct: purchased Promega (in-house HiBiT-GPCR construct library, NanoBRET)
T3 sequence (P18089 1-450): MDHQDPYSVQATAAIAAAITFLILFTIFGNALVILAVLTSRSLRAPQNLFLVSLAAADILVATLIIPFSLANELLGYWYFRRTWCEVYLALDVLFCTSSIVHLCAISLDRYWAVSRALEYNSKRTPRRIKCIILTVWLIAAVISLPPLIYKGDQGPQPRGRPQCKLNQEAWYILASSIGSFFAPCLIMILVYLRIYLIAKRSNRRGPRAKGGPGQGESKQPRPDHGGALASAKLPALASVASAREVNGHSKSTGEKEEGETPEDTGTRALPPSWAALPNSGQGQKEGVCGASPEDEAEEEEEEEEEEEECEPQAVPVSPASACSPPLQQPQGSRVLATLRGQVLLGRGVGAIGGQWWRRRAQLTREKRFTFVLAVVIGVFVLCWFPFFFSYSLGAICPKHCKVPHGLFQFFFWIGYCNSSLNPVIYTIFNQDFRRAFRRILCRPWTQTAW
Kind of assay: NanoBRET screen HiBiT-ADRA2B in HEK293.

T2 sequence (P28223 whole entry): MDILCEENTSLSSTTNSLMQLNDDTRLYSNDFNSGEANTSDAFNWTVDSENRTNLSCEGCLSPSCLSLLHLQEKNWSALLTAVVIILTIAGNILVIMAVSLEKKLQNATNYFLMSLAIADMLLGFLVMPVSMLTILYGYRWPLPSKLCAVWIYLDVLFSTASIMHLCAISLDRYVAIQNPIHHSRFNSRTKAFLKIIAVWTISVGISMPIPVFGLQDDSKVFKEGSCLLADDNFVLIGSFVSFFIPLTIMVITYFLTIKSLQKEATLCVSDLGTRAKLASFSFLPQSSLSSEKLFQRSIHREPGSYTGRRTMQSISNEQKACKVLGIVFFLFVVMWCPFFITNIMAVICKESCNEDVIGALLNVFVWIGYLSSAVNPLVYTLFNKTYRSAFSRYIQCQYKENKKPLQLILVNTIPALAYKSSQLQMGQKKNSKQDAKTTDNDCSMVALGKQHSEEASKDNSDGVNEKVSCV
T1 sequence (P37288 whole entry): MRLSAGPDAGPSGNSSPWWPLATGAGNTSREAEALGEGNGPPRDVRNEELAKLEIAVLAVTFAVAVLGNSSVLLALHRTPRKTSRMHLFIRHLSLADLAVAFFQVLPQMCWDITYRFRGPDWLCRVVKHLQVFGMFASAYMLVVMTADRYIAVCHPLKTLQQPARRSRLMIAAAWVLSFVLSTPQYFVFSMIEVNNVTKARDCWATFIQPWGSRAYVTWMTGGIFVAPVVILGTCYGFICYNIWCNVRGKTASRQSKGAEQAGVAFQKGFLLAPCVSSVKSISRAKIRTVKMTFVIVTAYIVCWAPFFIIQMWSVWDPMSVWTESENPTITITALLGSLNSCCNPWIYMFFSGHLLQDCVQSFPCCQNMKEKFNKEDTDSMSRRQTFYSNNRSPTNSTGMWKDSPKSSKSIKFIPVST

In the case of `COc1ccc2c(n1)c(CCNC(C)=O)cn2CCNC(=O)CCc1ccc2n1[B-](F)(F)[N+]1=C(c3ccc[nH]3)C=CC1=C2` [Azamelatonin-1-NB590], the “NanoBRET Fold Response” value at AVPR1A (0.1μM tracer) is listed as 2.27; on AVPR1A (1μM tracer) it was 0.90; on HTR2A (0.1μM tracer), 1.06; on HTR2A (1μM tracer), 1.06; on ADRA2B (0.1μM tracer), 1.18; at ADRA2B (1μM tracer), 0.96.
Turning to `CC(C)N(CC[C@H](c1ccccc1)c1cc(CCNC(=O)c2ccc(CNC(=O)CCc3ccc4n3[B-](F)(F)[N+]3=C(c5ccc[nH]5)C=CC3=C4)cc2)ccc1O)C(C)C` [Tolterodine-BZ-NB590], the “NanoBRET Fold Response” value at AVPR1A (AVPR1A, tracer 0.1μM) is given as 1.15; at AVPR1A (AVPR1A, tracer 1μM), 1.07; on HTR2A (HTR2A, tracer 0.1μM) it was 0.93; at HTR2A (HTR2A, tracer 1μM) it was 1.04; at ADRA2B (ADRA2B, tracer 0.1μM), 1.04; at ADRA2B (ADRA2B, tracer 1μM), 1.13.
With `O=C(CCc1ccc2n1[B-](F)(F)[N+]1=C(c3ccc[nH]3)C=CC1=C2)NCCOCCOCCNC(=O)OCCOCCN1CCN(C2=Nc3ccccc3Sc3ccccc32)CC1` [Quetiapine-a-2-NB590], the “NanoBRET Fold Response” value was determined as 1.02 at AVPR1A (AVPR1A, tracer 0.1μM) and 1.00 on AVPR1A (AVPR1A, tracer 1μM).
On the same counts, the results for `Cc1cc2c(s1)Nc1ccccc1N=C2N1CCN(CCCNC(=O)CCOCCOCCOCCOCCNC(=O)CCc2ccc3n2[B-](F)(F)[N+]2=C(c4ccc[nH]4)C=CC2=C3)CC1` [Olanzapine-a-2-NB590] are 1.11 and 1.16.
Take `O=C(CCc1ccc2n1[B-](F)(F)[N+]1=C(c3ccc[nH]3)C=CC1=C2)NCc1ccc(C(=O)NCCOCCOCCNCC(O)COc2cccc3ccccc23)cc1` (stereo not shown) [Propranolol-3-NB590]: the “NanoBRET Fold Response” value at AVPR1A (AVPR1A, 0.1μM) came to 1.06; at AVPR1A (AVPR1A, 1μM) it was 0.97.
As for `N#CN/C(=N\CCNC(=O)c1ccc(N)cc1)NCCCOc1cccc(CN2CCCCC2)c1` [Aminopotentidine (unmodified)], the “NanoBRET Fold Response” value is recorded as 1.10 at HTR2A (HTR2A, other tracers/Aminopotentidine (unmodified), 0.1μM); 1.07 on HTR2A (HTR2A, other tracers/Aminopotentidine (unmodified), 1μM); 1.49 on ADRA2B (ADRA2B, other tracers/Aminopotentidine (unmodified), 0.1μM); 1.60 at ADRA2B (ADRA2B, other tracers/Aminopotentidine (unmodified), 1μM).
Take `CN1CCN(C2=Nc3cc(Cl)ccc3N(CC(=O)NCCOCCOCCOCCOCCNC(=O)CCc3ccc4n3[B-](F)(F)[N+]3=C(c5ccc[nH]5)C=CC3=C4)c3ccccc32)CC1` [Clozapine-c-2-NB590]: the “NanoBRET Fold Response” value at AVPR1A (AVPR1A, 0.1μM tracer) is 0.99; on AVPR1A (AVPR1A, 1μM tracer), 0.96.
In the case of `O=C(CCc1ccc2n1[B-](F)(F)[N+]1=C(c3ccc[nH]3)C=CC1=C2)NCc1ccc(C(=O)NCCOCCC(=O)N[C@@H]2CC[C@@]3(O)[C@H]4Cc5ccc(O)c6c5[C@@]3(CCN4CC3CC3)[C@H]2O6)cc1` [Naltrexone-3-NB590], the “NanoBRET Fold Response” value on AVPR1A (AVPR1A, tracer 0.1μM) is on record as 1.34; at AVPR1A (AVPR1A, tracer 1μM), 0.76.
In the case of `CC(C)N(CC[C@H](c1ccccc1)c1cc(CCNC(=O)CCOCCOCCOCCOCCNC(=O)CCc2ccc3n2[B-](F)(F)[N+]2=C(c4ccc[nH]4)C=CC2=C3)ccc1O)C(C)C` [Tolterodine-2-NB590], the “NanoBRET Fold Response” value at AVPR1A (AVPR1A, tracer 0.1μM) amounted to 0.91; at AVPR1A (AVPR1A, tracer 1μM), 1.03; at HTR2A (HTR2A, tracer 0.1μM), 1.05; on HTR2A (HTR2A, tracer 1μM), 1.11; at ADRA2B (ADRA2B, tracer 0.1μM) it was 0.95; at ADRA2B (ADRA2B, tracer 1μM), 1.04.
On to `Cc1nc2n(c(=O)c1CCN1CCC(c3noc4cc(F)ccc34)CC1)CCCC2OC(=O)NCCOCCOCCOCCOCCNC(=O)CCc1ccc2n1[B-](F)(F)[N+]1=C(c3ccc[nH]3)C=CC1=C2` (stereo not shown) [Risperidone-2-NB590], for which the “NanoBRET Fold Response” value at AVPR1A (AVPR1A, tracer 0.1μM) stood at 0.90; at AVPR1A (AVPR1A, tracer 1μM) it was 0.87.
Regarding `O=C(CCOCCOCCOCCOCCNC(=O)CCc1ccc2n1[B-](F)(F)[N+]1=C(c3ccc[nH]3)C=CC1=C2)NCCCN1CCN(C2=Nc3cc(Cl)ccc3Nc3ccccc32)CC1` [Clozapine-a-2-NB590], the “NanoBRET Fold Response” value came to 0.89 at AVPR1A (AVPR1A, 0.1μM tracer); 0.99 on AVPR1A (AVPR1A, 1μM tracer); 2.26 on HTR2A (HTR2A, 0.1μM tracer); 2.01 on HTR2A (HTR2A, 1μM tracer); 7.79 at ADRA2B (ADRA2B, 0.1μM tracer); 7.79 on ADRA2B (ADRA2B, 1μM tracer).
On to `COc1ccc2[nH]c(-c3ccc(CNC(=O)CCOCCOCCOCCOCCNC(=O)CCc4ccc5n4[B-](F)(F)[N+]4=C(c6ccc[nH]6)C=CC4=C5)cc3)c(CCNC(C)=O)c2n1` [AzomelatoninICO9-2-NB590], for which the “NanoBRET Fold Response” value at AVPR1A (0.1μM tracer) stood at 0.80; at AVPR1A (1μM tracer), 0.75; at HTR2A (0.1μM tracer) it was 0.92; at HTR2A (1μM tracer), 1.02; on ADRA2B (0.1μM tracer), 1.35; on ADRA2B (1μM tracer) it was 1.12.
With `CN1CCN(C2=Nc3cc(Cl)ccc3Nc3ccc(CNC(=O)CCOCCOCCOCCOCCNC(=O)CCc4ccc5n4[B-](F)(F)[N+]4=C(c6ccc[nH]6)C=CC4=C5)cc32)CC1` [Clozapine-b-2-NB590], the “NanoBRET Fold Response” value was determined as 1.04 at AVPR1A (AVPR1A, 0.1μM tracer) and 0.98 at AVPR1A (AVPR1A, 1μM tracer).
As to `COc1ccccc1N1CCN(CCCCN2C(=O)c3ccc(CNC(=O)CCOCCNC(=O)c4ccc(CNC(=O)CCc5ccc6n5[B-](F)(F)[N+]5=C(c7ccc[nH]7)C=CC5=C6)cc4)cc3C2=O)CC1` [NAN-190-3-NB590], the “NanoBRET Fold Response” value was 0.90 at AVPR1A (AVPR1A, tracer 0.1μM); 0.75 on AVPR1A (AVPR1A, tracer 1μM); 1.14 and 1.13 on HTR2A; 4.24 at ADRA2B (ADRA2B, tracer 0.1μM); 5.21 on ADRA2B (ADRA2B, tracer 1μM).
In the case of `CN(C)CCC=C1c2ccccc2CCc2ccc(C(=O)NCCNC(=O)CCOCCOCCOCCOCCNC(=O)CCc3ccc4n3[B-](F)(F)[N+]3=C(c5ccc[nH]5)C=CC3=C4)cc21` [Amitriptyline-b-2-NB590], the “NanoBRET Fold Response” value on AVPR1A (tracer at 0.1μM, listed as amitriptyline-b-2-NB590) came out at 1.10; on AVPR1A (tracer at 1μM, listed as amitriptyline-b-2-NB590), 0.77.
In the case of `CN(CCC=C1c2ccccc2CCc2ccccc21)C(=O)CCOCCOCCOCCOCCNC(=O)CCc1ccc2n1[B-](F)(F)[N+]1=C(c3ccc[nH]3)C=CC1=C2` [Amitriptyline-e-2-NB590], the “NanoBRET Fold Response” value at AVPR1A (tracer at 1μM) was determined as 0.98.
As to `CN(C)CCC=C1c2ccccc2CCc2ccc(C(=O)NCCNC(=O)CCOCCOCCOCCOCCNC(=O)CCc3ccc4n3[B-](F)(F)[N+]3=C(c5ccc[nH]5)C=CC3=C4)cc21` [Amitriptyline-a-2-NB590], the “NanoBRET Fold Response” value at AVPR1A (tracer at 0.1μM) came out at 0.93; at AVPR1A (tracer at 1μM), 1.11.
